# Test system: TNF-alpha production in LPS stimulated human peripheral blood mononuclear cells (PBMCs)
# Test: Inhibition on TNF-alpha Production in Human Mononuclear Cells
# Assay type: cell-based
# Details: PBMC, LPS 1 μg/mL, 24 hours, TNF-alpha by ELISA, read-out: IC50, TNF-alpha production from stimulated PBMCs
# Protocol: (b) Inhibition on TNF-alpha Production in Human Mononuclear Cells 1. Test Method (1) Human Peripheral Blood Mononuclear Cells (PBMCs) Preparation
# Blood (30 ml for each person) was collected from the median cubital vein of healthy volunteer was divided 15 mL each in heparin containing conical tube and the same volume of RPMI1640 was added to each tube. Diluted blood was then piled up to 20 mL of Ficoll-Paque PLUS (Amersham Pharmacia Biotech) in polystyrene centrifuge tube. After centrifugation at 1,600 rpm for 30 minutes, cells gathering in the center area of the gradient were collected by capillary and washed with 40 mL of RPMI1640 in several times with centrifugation at 1,200 rpm for 10 minutes. PBMC finally precipitated were suspended in RPMI1640 containing 1% fetal bovine serum and antibiotics. After cell counting, final suspension at 3×10^6 cells/mL in culture medium was prepared.
# Human PBMCs prepared by the density gradient method using Ficoll-Paque PLUS were suspended in the culture medium mentioned above with the concentration of 3×10^6 cells/mL and 0.5 mL of the suspension was sowed into each well of a 24-well culture plate. Cells were incubated in the CO2 incubator for 24 hours with 0.25 mL of LPS in addition of 0.25 mL of concentrations of drugs or vehicle at the start of the incubation. […] TNF-alpha levels in the medium were measured by ELISA. […]
row,SMILES,IC50 [nM]
1,"CCc1ccc2c(-c3ccc(C(N)=O)cc3)c(CCCCCC(=O)O)c(C)nn12 [Example 198, 6-{4-[4-(Aminocarbonyl)phenyl]-7-ethyl-2-methylpyrrolo[1,2-b]pyridazin-3-yl}hexanoic acid]",< 100

# Test system: not given
# Test: not given
# Details: not given
row,SMILES,melting point [°C]
1,"CCc1ccc2c(-c3cncc(Cl)c3)c(CCCCC(=O)O)c(COC)nn12 [Example 503, 5-[4-(5-chloro-3-pyridinyl)-7-ethyl-2-(methoxymethyl)pyrrolo[1,2-b]pyridazin-3-yl]pentanoic acid]",118 to 119
2,"CCc1ccc2c(-c3cncc(Cl)c3)c(CCCC(=O)O)c(COC)nn12 [Example 501, 4-[4-(5-chloro-3-pyridinyl)-7-ethyl-2-(methoxymethyl)pyrrolo[1,2-b]pyridazin-3-yl]butanoic acid]",112 to 113
3,"CCc1ccc2c(-c3cncc(Cl)c3)c(CCC(=O)O)c(COC)nn12 [Example 502, 3-[4-(5-chloro-3-pyridinyl)-7-ethyl-2-(methoxymethyl)pyrrolo[1,2-b]pyridazin-3-yl]propanoic acid]",159 to 160
4,"CCc1ccc2c(-c3cncc(Br)c3)c(CCC(=O)NS(C)(=O)=O)c(C)nn12 [Example 390, N-{3-[4-(5-bromo-3-pyridinyl)-7-ethyl-2-methylpyrrolo[1,2-b]pyridazin-3-yl]propanoyl}methanesulfonamide]",196.5 to 197.5
5,"CCc1ccc2c(-c3cncc(OC)c3)c(CCCCC(=O)O)c(COC)nn12 [Example 496, 5-[7-ethyl-2-(methoxymethyl)-4-(5-methoxy-3-pyridinyl)pyrrolo[1,2-b]pyridazin-3-yl]pentanoic acid]",111 to 112
6,"CCc1ccc2c(-c3cncc(Br)c3)c(C(=O)OC)c(COC(C)=O)nn12 [Example 429, methyl 2-[(acetyloxy)methyl]-4-(5-bromo-3-pyridinyl)-7-ethylpyrrolo[1,2-b]pyridazine-3-carboxylate]",122 to 123
7,"CCOC(=O)CC(=O)Cc1c(C)nn2c(Cl)ccc2c1-c1ccc(F)cc1 [Example 192, Ethyl 4-[7-chloro-4-(4-fluorophenyl)-2-methylpyrrolo[1,2-b]pyridazin-3-yl]-3-oxobutanoate]",116 to 118
8,"CCc1ccc2c(-c3cncc(OC)c3)c(CCCC(=O)O)c(COC)nn12 [Example 499, 4-[7-ethyl-2-(methoxymethyl)-4-(5-methoxy-3-pyridinyl)pyrrolo[1,2-b]pyridazin-3-yl]butanoic acid]",140 to 141
9,"CCc1ccc2c(-c3cncc(Br)c3)c(CCC(=O)N3CCOCC3)c(C)nn12 [Example 388, 4-(5-bromo-3-pyridinyl)-7-ethyl-2-methyl-3-[3-(4-morpholinyl)-3-oxopropyl]pyrrolo[1,2-b]pyridazine]",178 to 180
10,"CCc1ccc2c(-c3cncc(Br)c3)c(CCC(=O)NC)c(C)nn12 [Example 389, 3-[4-(5-bromo-3-pyridinyl)-7-ethyl-2-methylpyrrolo[1,2-b]pyridazin-3-yl]-N-methylpropanamide]",172 to 174
11,"CCc1ccc2c(-c3cncc(OC)c3)c(CCC(=O)O)c(COC)nn12 [Example 498, 3-[7-ethyl-2-(methoxymethyl)-4-(5-methoxy-3-pyridinyl)pyrrolo[1,2-b]pyridazin-3-yl]propanoic acid]",164 to 165
12,"CCc1ccc2c(-c3cncc(Br)c3)c(CCCCC(=O)NS(C)(=O)=O)c(C)nn12 [Example 267, N-{5-[4-(5-Bromo-3-pyridinyl)-7-ethyl-2-methylpyrrolo[1,2-b]pyridazin-3-yl]pentanoyl}methanesulfonamide]",124 to 125
13,"CCc1ccc2c(-c3cccc(C#N)c3)c3c(nn12)CCC3=O [Example 10, 3-(6-Ethyl-1-oxo-2,3-dihydro-1H-cyclopenta[e]pyrrolo[1,2-b]pyridazin-9-yl)benzonitrile]",150 to 154
14,"CCc1ccc2c(-c3cncc(Br)c3)c(CCC(=O)O)c(C)nn12 [Example 135, 3-[4-(5-Bromo-3-pyridinyl)-7-ethyl-2-methylpyrrolo[1,2-b]pyridazin-3-yl]propanoic acid]",181 to 182

# The next lines start with the values.
row,melting point [°C],SMILES
1,66 to 69,"CCc1ccc2c(-c3cccc(C#N)c3)c(CCCCC(=O)N3CCOCC3)c(-c3ccccc3)nn12 [Example 282, 3-{7-Ethyl-3-[5-(4-morpholinyl)-5-oxopentyl]-2-phenylpyrrolo[1,2-b]pyridazin-4-yl}benzonitrile]"
2,60,"CCc1ccc2c(-c3cccc(C#N)c3)c(CCCCC(=O)NC)c(-c3ccccc3)nn12 [Example 278, 5-[4-(3-Cyanophenyl)-7-ethyl-2-phenylpyrrolo[1,2-b]pyridazin-3-yl]-N-methylpentanamide]"
3,67 to 70,"CCc1ccc2c(-c3cccc(C#N)c3)c(CCCCC(=O)Nc3ccccn3)c(-c3ccccc3)nn12 [Example 263, 5-[4-(3-Cyanophenyl)-7-ethyl-2-phenylpyrrolo[1,2-b]pyridazin-3-yl]-N-(2-pyridinyl)pentanamide]"
4,139 to 140,"CCc1ccc2c(-c3ccnc(Cl)c3)c(CCCCC(=O)O)c(C)nn12 [Example 94, 5-[4-(2-Chloro-4-pyridinyl)-7-ethyl-2-methylpyrrolo[1,2-b]pyridazin-3-yl]pentanoic acid]"
5,55 to 58,"CCc1ccc2c(-c3cccc(Cl)c3)c(CCCCC(=O)N3CCOCC3)c(-c3ccccc3)nn12 [Example 279, 4-(3-Chlorophenyl)-7-ethyl-3-[5-(4-morpholinyl)-5-oxopentyl]-2-phenylpyrrolo[1,2-b]pyridazine]"
6,70 to 72,"CCc1ccc2c(-c3cccc(Cl)c3)c(CCCCC(=O)NC)c(-c3ccccc3)nn12 [Example 280, 5-[4-(3-Chlorophenyl)-7-ethyl-2-phenylpyrrolo[1,2-b]pyridazin-3-yl]-N-methylpentanamide]"
7,172 to 173,"CCc1ccc2c(-c3cccc(Cl)c3)c(C#N)c(-c3ccccc3)nn12 [Example 7, 4-(3-Chlorophenyl)-7-ethyl-2-phenylpyrrolo[1,2-b]pyridazine-3-carbonitrile]"

# Target: U937 Phosphodiesterase IV (PDE IV)
# Test: Inhibition of U937 Phosphodiesterase IV (PDE IV)
# Assay type: biochemical
# Details: enzyme preparation from U937 cells, [3H]cAMP SPA assay, CI-930 10 μM added, 30° C. 15 minutes; read-out: IC50, inhibitory activity on PDE-IV
# Protocol: (a) Inhibition of U937 Phosphodiesterase IV (PDE IV)
# Cultured U937 cells were washed twice and harvested with phosphate-buffered saline (PBS) by cell-scraper. After centrifugation, the cell pellet was suspended in homogenizing buffer (0.5% deoxycholate [DOC], 5 mM 2-mercaptoethanol, 1 μM leupeptin, 100 μM PMSF, 20 μM p-tosyl-L-lysine-chloromethyl ketone [TLCK] in PBS). The cell suspension was then sonicated for a couple of minutes and homogenized by a glass-Teflon homogenizer with twenty strokes. The homogenate was centrifuged at 200 g for 30 minutes, and the supernatant was further ultra-centrifuged at 100,000×g for 90 minutes (4° C.). […]
# PDE4, activity was estimated with a Phosphodiesterase [^3H]cAMP SPA Enzyme Assay System (Amersham Pharmacia Biotech), using a 96 well Opti-plate. […] Radio-activity in each well was counted by a Top Counter. […]
# IC50 values of test compounds for the enzyme activity of PDE4 was determined from regression analysis for log-logit conversion values of percent inhibition in the compound-treated tubes compared to that of the control. Percent inhibition was calculated with the following equation: Inhibition (%)={1−(C−B)/(A−B)}×100; in which A, B and C means mean values of radio-activity counts (dpm) of control, blank and the compound-treated tubes, respectively.
row,IC50 [nM],SMILES
1,< 1000,"CCc1ccc2c(-c3ccc(C(N)=O)cc3)c(CCCCCC(=O)O)c(C)nn12 [Example 198, 6-{4-[4-(Aminocarbonyl)phenyl]-7-ethyl-2-methylpyrrolo[1,2-b]pyridazin-3-yl}hexanoic acid]"

# Reference: US7317009B2, “Pyrrolopyridazine derivatives” (Astellas Pharma Inc., priority 2003, dated 2008)
